Data set [1] concerns the target T1, Beta-3 adrenergic receptor (Homo sapiens, UniProt P13945). As to the kind of experiment: Tested for Beta3 adrenergic receptor agonist activity by its ability to stimulate adenylyl cyclase activation as % of the maximal stimulation with isoproterenol. The format is functional.
Target sequence in this assay (P13945 whole entry, looked up): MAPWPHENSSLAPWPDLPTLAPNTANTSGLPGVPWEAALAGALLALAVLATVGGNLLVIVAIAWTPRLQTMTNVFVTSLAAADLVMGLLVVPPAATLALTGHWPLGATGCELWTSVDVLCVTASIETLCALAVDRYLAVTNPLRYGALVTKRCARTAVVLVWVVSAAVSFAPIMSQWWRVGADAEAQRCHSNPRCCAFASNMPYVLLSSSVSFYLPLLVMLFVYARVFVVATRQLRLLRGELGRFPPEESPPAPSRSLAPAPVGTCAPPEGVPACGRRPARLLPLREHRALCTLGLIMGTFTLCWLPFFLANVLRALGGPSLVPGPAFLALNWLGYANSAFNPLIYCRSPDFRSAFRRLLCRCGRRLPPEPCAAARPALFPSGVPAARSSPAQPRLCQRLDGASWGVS
For data set [2], the target named is Beta-2 adrenergic receptor (Homo sapiens, UniProt P07550). In words: Binding affinity for clone human Beta-2 adrenergic receptor from CHO cell membranes in the presence of I-iodocyanopindolol.
For data set [3], the target named is Beta-1 adrenergic receptor (Homo sapiens, UniProt P08588). In words: Binding affinity for cloned human Beta-1 adrenergic receptor expressed in CHO cells, tested in the presence of I-iodocyanopindolol. The format is cell-based.
The target in data set [4] is T1, Beta-3 adrenergic receptor. As to the kind of experiment: Tested in vitro for its ability to stimulate increase in cAMP in CHO cells expressing the cloned human beta-3 adrenergic receptor. It counts as functional, cell-based.
Target sequence in this assay (P13945 whole entry): as the sequence (P13945 whole entry, looked up) above
Data set [5] can be described thus: Oral bioavailability in dog. The settings on record: in vivo. It counts as ADME, organism-based, Canis lupus familiaris.
Data set [6] in a line: The compound was tested for half life in dog. The format is ADME, organism-based, Canis lupus familiaris. The settings on record: in vivo.
Data set [7] has as its system Monkey. In words: Compound was tested for separation between lipolytic potency and tachycardia, as heart rate, effect was determined at highest dose of 10 mg/kg in rhesus monkeys. The format is functional, Cercopithecidae.
The subject of data set [8] is Monkey. In words: Effective dose that produced hyperglycerolemia in anesthetized rhesus monkeys. It counts as functional. To be noted: Cercopithecidae, in Macaca mulatta.
Data set [9] is described as follows: The half life was determined. It counts as ADME, organism-based, Canis lupus familiaris. To be noted: dog, in vivo.

For orientation: IC50 means the point on the concentration scale where inhibition reaches its midpoint. A word on the EC50: it is the midpoint of the concentration-response curve. In general, half-life refers to the time needed for the level to fall by half in the phase considered. In general, ED50 refers to the dose at which the effect has come halfway, by size or by number of responders.

Each structure is given as a SMILES string.

Beta-1 adrenergic receptor, sequence (P08588 whole entry): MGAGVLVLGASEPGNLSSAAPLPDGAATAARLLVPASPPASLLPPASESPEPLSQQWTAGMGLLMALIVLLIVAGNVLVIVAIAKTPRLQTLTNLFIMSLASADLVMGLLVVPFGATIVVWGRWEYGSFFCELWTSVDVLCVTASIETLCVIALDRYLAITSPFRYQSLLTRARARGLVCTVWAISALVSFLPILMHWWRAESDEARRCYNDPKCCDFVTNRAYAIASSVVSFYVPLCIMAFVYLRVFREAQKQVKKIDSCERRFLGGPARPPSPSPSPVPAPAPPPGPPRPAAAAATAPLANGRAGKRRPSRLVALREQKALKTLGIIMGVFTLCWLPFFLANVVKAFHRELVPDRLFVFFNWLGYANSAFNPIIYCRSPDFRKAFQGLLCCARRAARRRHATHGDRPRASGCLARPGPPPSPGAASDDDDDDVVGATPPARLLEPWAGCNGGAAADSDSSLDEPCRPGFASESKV
Beta-2 adrenergic receptor, sequence (P07550 whole entry): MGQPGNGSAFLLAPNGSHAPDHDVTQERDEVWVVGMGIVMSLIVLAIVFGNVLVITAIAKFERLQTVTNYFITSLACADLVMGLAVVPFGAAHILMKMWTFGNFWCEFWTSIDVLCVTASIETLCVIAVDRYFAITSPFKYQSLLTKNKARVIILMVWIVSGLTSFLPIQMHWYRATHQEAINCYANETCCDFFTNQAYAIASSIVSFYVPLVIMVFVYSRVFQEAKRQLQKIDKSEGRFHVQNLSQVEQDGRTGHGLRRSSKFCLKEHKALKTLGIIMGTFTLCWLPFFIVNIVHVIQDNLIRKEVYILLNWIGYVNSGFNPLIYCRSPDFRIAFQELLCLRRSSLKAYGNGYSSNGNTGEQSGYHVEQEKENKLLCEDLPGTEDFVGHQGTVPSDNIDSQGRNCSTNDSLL

`O=S(=O)(Nc1ccc(CCNC[C@H](O)c2cccnc2)cc1)c1ccc(-n2ncc(COc3ccc(F)c(F)c3)n2)cc1`: the Activation in data set [1] is 63%. Also, the IC50 in data set [2] is 690 nM; in data set [3], 930 nM. Moreover, in data set [4], the EC50 came to 10 nM.
With `O=S(=O)(Nc1ccc(CCNC[C@H](O)c2cccnc2)cc1)c1ccc(-n2ncc(Cc3ccc(C(F)(F)F)cc3)n2)cc1`, the bioavailability in [5] (read-out: Activity) was 25%. For the same compound, the Activation in data set [1] is 85%. Further, the figures for the IC50 in [2] and in data set [3] were 4700 nM and 20000 nM, respectively. This compound also had a half-life in data set [6] of 6 h. For the same compound, the Heart rate in data set [7] is on record as below 5%. The same compound came in with an ED50 in [8] of 0.36 mg/kg. In data set [4], this compound showed an EC50 of 3.1 nM.
For the compound `COc1ccc(-c2cnn(-c3ccc(S(=O)(=O)Nc4ccc(CCNC[C@H](O)c5cccnc5)cc4)cc3)n2)cc1F`, the Activation in data set [1] is 80%. Moreover, the values for the IC50 in data set [2] and in data set [3] were 2500 nM and 5600 nM, respectively. Moreover, the EC50 in data set [4] turned out to be 22 nM.
For `O=S(=O)(Nc1ccc(CCNC[C@H](O)c2cccnc2)cc1)c1ccc(-n2ncc(-c3cccc(F)c3)n2)cc1` the same measures were 89%, 8800 nM, 8700 nM and 52 nM.
For the compound `O=S(=O)(Nc1ccc(CCNC[C@H](O)c2cccnc2)cc1)c1ccc(-n2ncc(Cc3ccc(F)cc3)n2)cc1`, the Activation in [1] came out at 75%. Also, the values for the IC50 in [2] and in data set [3] were 780 nM and 2500 nM, respectively. Moreover, in [4], it took 14 nM to reach a half-maximal effect (EC50).
Regarding `O=S(=O)(Nc1ccc(CCNC[C@H](O)c2cccnc2)cc1)c1ccc(-n2ncc(COc3ccc(OC(F)(F)F)cc3)n2)cc1`, the Activation in [1] turned out to be 75%. Also, the IC50 in data set [2] stood at 620 nM; in [3], 6200 nM. Further, in data set [4], the EC50 was found to be 14 nM.
For `O=S(=O)(Nc1ccc(CCNC[C@H](O)c2cccnc2)cc1)c1ccc(-n2ncc(Cc3c(F)cc(F)cc3F)n2)cc1` the same measures were 83%, 8800 nM, 10000 nM and 48 nM.
In the case of `O=S(=O)(Nc1ccc(CCNC[C@H](O)c2cccnc2)cc1)c1ccc(-n2ncc(Cc3ccc(F)c(F)c3)n2)cc1`, the bioavailability in [5] (read-out: Activity) amounted to 38%. Also, the Activation in data set [1] was determined as 86%. The same compound gave a half-life in data set [9] of 4 h. In addition, the results for the IC50 in data set [2] and in data set [3] were 1000 nM and 2000 nM, respectively. For the same compound, a half-maximal response in [4] (EC50) required 7.2 nM.
Take `O=S(=O)(Nc1ccc(CCNC[C@H](O)c2cccnc2)cc1)c1ccc(-n2ncc(-c3ccc(F)cc3)n2)cc1`: the Activation in [1] was determined as 91%. Besides, the IC50 in data set [2] amounted to 9300 nM; in data set [3] it was 40000 nM. In addition, the EC50 in data set [4] stood at 24 nM.
The compound `O=S(=O)(Nc1ccc(CCNC[C@H](O)c2cccnc2)cc1)c1ccc(-n2ncc(Cc3cccc(F)c3)n2)cc1` came in with an Activation in [1] of 87%. Moreover, the figures for the IC50 in [2] and in data set [3] were 380 nM and 3000 nM, respectively. Besides, a half-maximal effect in data set [4] (EC50) was put at 6.4 nM.
For `CCCCCCNC(=O)Nc1ccc(S(=O)(=O)Nc2ccc(CCNC[C@H](O)c3cccnc3)cc2)cc1`, in [5], the bioavailability is below 1%.
For `O=S(=O)(Nc1ccc(CCNC[C@H](O)c2cccnc2)cc1)c1ccc(-n2ncc(COc3ccc(C(F)(F)F)cc3)n2)cc1`, the Activation in data set [1] was 72%. The IC50 in data set [2] came out at 730 nM; in data set [3], 920 nM. The compound also yielded an EC50 in data set [4] of 11 nM.
As to `O=S(=O)(Nc1ccc(CCNC[C@H](O)c2cccnc2)cc1)c1ccc(-n2ncc(-c3ccc(F)c(F)c3)n2)cc1`, the Activation in [1] was found to be 82%. Besides, the IC50 turned out to be 1300 nM in data set [2] and 2600 nM in data set [3]. The compound also registered an EC50 in data set [4] of 14 nM.
The compound `CCCCCCn1ccn(-c2ccc(S(=O)(=O)Nc3ccc(CCNC[C@H](O)c4cccnc4)cc3)cc2)c1=O` [L-764646] displayed a bioavailability in [5] of 7%.
Compound `O=S(=O)(Nc1ccc(CCNC[C@H](O)c2cccnc2)cc1)c1ccc(-n2ncc(C(O)c3ccc(F)cc3)n2)cc1` (stereo partly specified) registered an EC50 in data set [4] of 3.3 nM.
In the case of `O=S(=O)(Nc1ccc(CCNC[C@H](O)c2cccnc2)cc1)c1ccc(-n2ncc(-c3ccc(C(F)(F)F)cc3)n2)cc1`, in [5], the bioavailability is 18%. In data set [1], this compound registered an Activation of 90%. The half-life in data set [9] is 15 h. Moreover, the IC50 in data set [2] and in data set [3] was 21000 nM throughout. In addition, the EC50 in data set [4] was 14 nM.
With `O=S(=O)(Nc1ccc(CCNC[C@H](O)c2cccnc2)cc1)c1ccc(-n2ncc(Cc3c(F)cccc3F)n2)cc1`, in data set [1], the Activation is 84%. Moreover, the figures for the IC50 in data set [2] and in [3] were 5000 nM and 28000 nM, respectively. In addition, a half-maximal response in data set [4] (EC50) required 24 nM.
Compound `O=S(=O)(Nc1ccc(CCNC[C@H](O)c2cccnc2)cc1)c1ccc(-n2ncc(Cc3ccc(OC(F)(F)F)cc3)n2)cc1` had an Activation in [1] of 91%. The IC50 worked out at 860 nM in data set [2] and 2600 nM in [3]. This compound had an EC50 in data set [4] of 4.1 nM.
Regarding `O=C(c1ccc(F)cc1)c1cnn(-c2ccc(S(=O)(=O)Nc3ccc(CCNC[C@H](O)c4cccnc4)cc3)cc2)n1`, the EC50 in data set [4] was determined as 6.4 nM.
On to `O=S(=O)(Nc1ccc(CCNC[C@H](O)c2cccnc2)cc1)c1ccc(-n2ncc(-c3ccc(OC(F)(F)F)cc3)n2)cc1`, for which the Activation in data set [1] worked out at 84%. Moreover, the values for the IC50 in data set [2] and in [3] were 1600 nM and 1300 nM, respectively. The compound also yielded an EC50 in data set [4] of 18 nM.
